This test has as its target T1, α1β3γ2 GABAA receptor, γ2Y468C variant (Homo sapiens, UniProt P14867+P18507+P28472, Y468C).
T1 construct: expressed in transfected cells; host or cells: HEK293T
T1 sequence (P14867 28-456): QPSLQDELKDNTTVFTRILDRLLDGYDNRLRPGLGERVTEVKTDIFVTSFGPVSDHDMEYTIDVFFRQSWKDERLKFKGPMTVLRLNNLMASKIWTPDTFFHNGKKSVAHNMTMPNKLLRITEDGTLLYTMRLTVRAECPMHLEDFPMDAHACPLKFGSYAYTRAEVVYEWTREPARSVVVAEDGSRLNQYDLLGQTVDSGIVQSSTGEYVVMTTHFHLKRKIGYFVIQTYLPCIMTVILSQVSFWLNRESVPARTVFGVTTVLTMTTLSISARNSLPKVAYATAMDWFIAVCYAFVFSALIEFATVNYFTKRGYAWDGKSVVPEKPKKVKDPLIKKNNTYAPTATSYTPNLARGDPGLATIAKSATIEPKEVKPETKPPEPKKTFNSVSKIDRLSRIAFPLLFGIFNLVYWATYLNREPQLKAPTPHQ
T1 sequence (P28472 26-473 isoform P28472-2): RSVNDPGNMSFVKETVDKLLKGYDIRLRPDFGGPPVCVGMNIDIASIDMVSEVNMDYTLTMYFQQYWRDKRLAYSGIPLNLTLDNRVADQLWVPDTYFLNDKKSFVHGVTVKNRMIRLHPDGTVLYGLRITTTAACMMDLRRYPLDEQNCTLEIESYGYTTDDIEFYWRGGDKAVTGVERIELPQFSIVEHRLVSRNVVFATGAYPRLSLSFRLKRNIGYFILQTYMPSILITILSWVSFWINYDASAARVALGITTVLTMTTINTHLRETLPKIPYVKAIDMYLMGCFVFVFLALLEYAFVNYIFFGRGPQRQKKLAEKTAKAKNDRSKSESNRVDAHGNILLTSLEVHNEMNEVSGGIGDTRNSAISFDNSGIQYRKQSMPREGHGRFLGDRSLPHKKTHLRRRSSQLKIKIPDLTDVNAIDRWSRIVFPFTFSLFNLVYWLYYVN
T1 sequence (P18507 40-475 Y468C): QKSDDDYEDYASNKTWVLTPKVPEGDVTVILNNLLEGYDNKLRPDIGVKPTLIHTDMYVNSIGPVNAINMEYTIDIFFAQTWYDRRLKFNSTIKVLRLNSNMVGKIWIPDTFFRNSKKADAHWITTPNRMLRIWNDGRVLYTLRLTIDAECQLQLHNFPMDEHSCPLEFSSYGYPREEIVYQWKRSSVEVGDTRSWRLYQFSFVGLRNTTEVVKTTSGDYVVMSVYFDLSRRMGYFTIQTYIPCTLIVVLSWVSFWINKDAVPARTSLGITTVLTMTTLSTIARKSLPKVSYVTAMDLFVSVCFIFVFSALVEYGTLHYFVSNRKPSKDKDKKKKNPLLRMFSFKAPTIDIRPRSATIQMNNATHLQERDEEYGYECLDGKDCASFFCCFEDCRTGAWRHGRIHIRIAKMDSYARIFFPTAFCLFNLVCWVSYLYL
Description: Automated patch clamp of GABA-elicited currents (SyncroPatch 384PE), γ2Y468C. In kind it is cell-based. The conditions noted are these: mean. On the procedure: The coding sequences of human α1 (GABRA1, NM_000806), β3 (GABRB3, NM_021912), and γ2 (GABRG2, NM_198904.2) GABAAR subunits were subcloned into the pcDNA3.1 expression vectors (Invitrogen, Waltham, MA, USA).
HEK293T cells (ATCC, CRL-11268) were cultured at 37 °C in a humidified 5% CO2 incubator and maintained in Dulbecco’s modified Eagle’s medium (Invitrogen) supplemented with 10% fetal bovine serum (Life Technologies, Carlsbad, CA, USA), and 100 IU/mL of penicillin/streptomycin (Life Technologies). For the expression experiments, 4 × 10^5 cells were transfected using polyethylenimine (PEI) reagent (40 kD, Polysciences, Warrington, PA, USA) at a DNA: to transfection reagent ratio of 1:2.5 and harvested 36 h after transfection. To express WT and variant α1β3γ2 receptors, a total of 3 µg of α1, β3, and γ2 (WT or mutant) subunit cDNAs were transfected at a ratio of 1:1:1 into 60 mm culture dishes. For the mock-transfected condition, an empty pcDNA3.1 vector was added for a final cDNA transfection amount of 3 μg. For the electrophysiology experiments, 2.5 × 10^5 cells were plated in 100 mm culture dishes and transfected after 24 h with 3 μg of cDNA of each α1, β3, γ2 (wild-type or mutant) subunit, using X-tremeGENE HP DNA transfection Reagent (Roche Diagnostics, Basel, Switzerland), following the manufacturer’s protocol. Recordings were obtained forty-eight hours after transfection.
Whole-cell patch clamp recordings were conducted according to the manufacturer’s standard procedure for the SyncroPatch 384 [31]. Whole-cell voltage-clamp recordings were performed at room temperature on HEK293T cells 48 h after transfection with GABAAR subunits, using the SyncroPatch 384PE (Nanion Technologies, Munich, Germany). Cells, at a concentration of 400,000 cells/mL, were harvested in suspension in external solution containing 140 mM of NaCl, 2 mM of CaCl2, 4 mM of KCl, 1 mM of MgCl2, 5 mM of glucose, and 10 mM of HEPES (pH 7.4 with NaOH, 298 mOsm). The cells were loaded in a multi-hole (4 holes per well) 384-well Nanion patch clamp (NPC) chip with a thick borosilicate glass bottom and an average resistance pore size of […]. Built-in electrophysiological protocols were used, and the data were digitized using PatchControl 384 (Nanion Technologies) application. Using PatchControl 384, electrophysiological parameters, such as seal resistance, capacitance, and series resistance, were determined for each well after the application of a test pulse, and subsequently monitored over time. […] The currents were normalized to the maximal response of each well, and the concentration–response curves were calculated from single-point additions. The EC50 values for each variant or wild-type receptor were calculated across multiple wells for each experimental condition.
For orientation: The patch-clamp technique gives a direct electrical read-out from membranes.

Consider 1 compound from article PMC10046037, “GABRG2 Variants Associated with Febrile Seizures” (Biomolecules, 2023).

In the case of `NCCCC(=O)O` [GABA, γ-aminobutyric acid], the Deactivation (1 mM GABA for 5 ms, HEK293T, -80 mV) is given as 433.9 ms. Besides, for the setting “1 mM GABA for 5 ms, HEK293T”, the “IMAX (maximal GABA-evoked peak current)” value came to 0.80 nA. For the same compound, the “IMAX variant/IMAX WT” value (1 mM GABA) is listed as 40.06%. Besides, the “Rise Time” value (10–90% rise time, 1 mM GABA for 5 ms, HEK293T) is listed as 26.52 ms.
